This passage reports Activity and inhibition results from ChEMBL document CHEMBL5528002, “Identification of selective 5-LOX and FLAP inhibitors as novel anti-inflammatory agents by ligand-based virtual screening” (Eur J Med Chem, 2024).

Active and inactive are the calls of the source. The calls are words filed in the database; no cut-off is given here.

The target of assay [1] is T1, Polyunsaturated fatty acid 5-lipoxygenase (Homo sapiens) (UniProt P09917).
T1 sequence (whole entry): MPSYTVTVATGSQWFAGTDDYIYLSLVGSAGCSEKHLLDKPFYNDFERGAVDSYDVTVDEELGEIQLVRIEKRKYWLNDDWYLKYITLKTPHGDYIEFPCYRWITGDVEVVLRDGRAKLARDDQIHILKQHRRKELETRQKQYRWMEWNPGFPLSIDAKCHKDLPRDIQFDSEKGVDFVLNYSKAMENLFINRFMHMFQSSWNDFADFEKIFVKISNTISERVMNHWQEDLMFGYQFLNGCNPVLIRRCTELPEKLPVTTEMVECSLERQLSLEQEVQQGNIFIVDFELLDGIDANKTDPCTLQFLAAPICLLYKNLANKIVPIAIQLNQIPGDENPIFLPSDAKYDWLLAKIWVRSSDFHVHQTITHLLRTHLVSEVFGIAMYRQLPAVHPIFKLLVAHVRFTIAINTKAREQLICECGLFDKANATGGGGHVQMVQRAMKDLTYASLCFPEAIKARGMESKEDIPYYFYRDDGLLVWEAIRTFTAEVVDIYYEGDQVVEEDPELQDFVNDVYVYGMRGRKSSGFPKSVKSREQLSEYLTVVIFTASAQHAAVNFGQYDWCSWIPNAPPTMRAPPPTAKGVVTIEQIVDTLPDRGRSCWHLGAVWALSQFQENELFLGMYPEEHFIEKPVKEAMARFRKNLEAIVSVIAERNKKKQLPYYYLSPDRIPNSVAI
The assay can be described thus: Inhibition of human recombinant 5-LOX expressed in Escherichia coli BL21(DE3) assessed as enzyme remaining activity at 10 uM using arachidonic acid as substrate preincubated with compound for 15 mins followed by substrate and CaCl2 addition measured after 10 mins by RP-HPLC analysis relative to control. To be noted: time 25.0 min.

For assay [2], the target named is T1, Polyunsaturated fatty acid 5-lipoxygenase (Homo sapiens). The assay can be described thus: Inhibition of 5-LOX in human Neutrophil assessed as enzyme remaining activity at 10 uM preincubated with compound for 15 mins followed by A23187 addition measured after 10 mins by RP-HPLC analysis relative to control. To be noted: time 25.0 min. The assay is classed as cell-based.

Assay [3] has the same target. Kind of assay: Inhibition of 5-LOX in human Neutrophil assessed as enzyme remaining activity at 10 uM using arachidonic acid as substrate preincubated with compound for 15 mins followed by substrate and A23187 addition measured after 10 mins by RP-HPLC analysis relative to control. The class given is cell-based. To be noted: time 25.0 min.
For assay [4], the target named is T2, Prostaglandin E synthase (Homo sapiens) (UniProt O14684).
T2 sequence (whole entry): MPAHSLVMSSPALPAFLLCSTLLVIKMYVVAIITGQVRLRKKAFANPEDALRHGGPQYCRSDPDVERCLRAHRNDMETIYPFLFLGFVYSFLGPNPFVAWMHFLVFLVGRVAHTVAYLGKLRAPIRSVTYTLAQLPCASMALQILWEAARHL
Kind of assay: Inhibition of human mPGES-1 assessed as enzyme remaining activity at 10 uM relative to control.

In assay [5] the target is T3, Bifunctional epoxide hydrolase 2 (Homo sapiens) (UniProt P34913).
T3 sequence (whole entry): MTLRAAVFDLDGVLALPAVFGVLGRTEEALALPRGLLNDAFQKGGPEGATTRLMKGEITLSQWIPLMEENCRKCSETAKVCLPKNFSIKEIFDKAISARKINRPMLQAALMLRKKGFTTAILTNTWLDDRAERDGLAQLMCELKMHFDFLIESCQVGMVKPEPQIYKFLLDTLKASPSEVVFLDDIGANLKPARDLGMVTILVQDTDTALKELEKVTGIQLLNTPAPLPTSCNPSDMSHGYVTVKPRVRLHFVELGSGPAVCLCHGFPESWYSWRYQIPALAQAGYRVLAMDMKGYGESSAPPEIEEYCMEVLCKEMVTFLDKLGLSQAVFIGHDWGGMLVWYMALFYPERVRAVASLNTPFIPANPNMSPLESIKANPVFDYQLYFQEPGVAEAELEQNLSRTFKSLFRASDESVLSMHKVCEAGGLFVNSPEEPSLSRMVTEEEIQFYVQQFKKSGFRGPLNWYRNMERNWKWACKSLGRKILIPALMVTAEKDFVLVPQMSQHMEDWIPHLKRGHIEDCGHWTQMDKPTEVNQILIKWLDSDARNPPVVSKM
Kind of assay: Inhibition of human sEH assessed as enzyme remaining activity at 10 uM relative to control.

Assay [6] deals with T1, Polyunsaturated fatty acid 5-lipoxygenase (Homo sapiens). The assay can be described thus: Inhibition of 5-LOX in human Neutrophil at 10 uM preincubated with compound for 15 mins followed by A23187 addition measured after 10 mins by RP-HPLC analysis relative to control. The assay is classed as cell-based. To be noted: time 25.0 min.
The target is the same in assay [7]. Kind of assay: Inhibition of 5-LOX in human Neutrophil at 10 uM using arachidonic acid as substrate preincubated with compound for 15 mins followed by substrate and A23187 addition measured after 10 mins by RP-HPLC analysis relative to control. The assay is classed as cell-based. The following applies: time 25.0 min.
In assay [8] the target is T3, Bifunctional epoxide hydrolase 2 (Homo sapiens). The assay can be described thus: Inhibition of human sEH at 10 uM relative to control.
The target of assay [9] is T2, Prostaglandin E synthase (Homo sapiens). Kind of assay: Inhibition of human mPGES-1 at 10 uM relative to control.
The nature of assay [10]: Antioxidant activity assessed as DPPH radical scavenging activity at 10 uM incubated for 30 min by DPPH assay. The assay is classed as functional. (DPPH is a stable violet radical that fades when it is reduced.)
Assay [11] in a line: Antioxidant activity assessed as DPPH radical scavenging activity at 1 uM incubated for 30 min by DPPH assay. The class given is functional.
The subject of assay [12] is Neutrophil. The assay can be described thus: Inhibition of ROS production in PMA-induced human Neutrophil cells at 1 uM incubated for 10 mins by DCFH-DA dye based fluorometric assay. The class given is functional, cell-based.
Assay [13] has as its system Neutrophil. The assay can be described thus: Inhibition of ROS production in PMA-induced human Neutrophil cells at 10 uM incubated for 10 mins by DCFH-DA dye based fluorometric assay. The assay is classed as functional, cell-based.

In the case of `Nc1nc(N)c2cc([S+]([O-])c3ccc4ccccc4c3)ccc2n1` (stereo not given), the Activity in assay [1] is 94.6%; in [2], 62%; in assay [3] it was 82.1%; in assay [4], 88.3%; in assay [5] it was 93.9%. Further, the inhibition (in general, the relative decrease from the control value, in per cent) in [6] is 37%; in assay [8], > 35%. The inhibition entry in [7] and in [9] was “inactive” in each case.

Regarding `CC(=O)NC(CCc1ccc(Cl)c(Cl)c1)c1cccc(O)c(=O)c1` (stereo not given), the Activity in [1] stood at 5.3%; in assay [2], 34.5%; in assay [3], 49.5%; in [4] it was 102%; in assay [5] it was 66.2%. Further, the inhibition is > 50% in assay [6], > 50% in assay [7] and > 35% in [8]. For the same molecule, the inhibition result in assay [9], in [12] and in [13] was “inactive” in each case. The outcome in [10] and in assay [11] was inactive.

For `O=C1NC(=O)C(CCC(=O)c2ccc3ccccc3c2)C(=O)N1`, the Activity was 86.1% in assay [1]; 63.3% in [2]; 94.8% in assay [3]; 77.5% in assay [4]; 83.3% in assay [5]. The inhibition in [6] was 37%; in assay [8], > 35%. Also, the inhibition entry in assay [7] and in assay [9] was “inactive” in each case.

As to `N=C1OC(c2c[nH]c3ccc(OCc4ccccc4)cc23)C(O)=C1O` (stereo not given), the Activity in assay [1] was determined as 95%; in [2], 56.1%; in assay [3] it was 92.3%; in assay [4], 56.8%; in assay [5], 86.7%. The inhibition in assay [6] is 37%; in assay [8], > 35%; in assay [9], < 40%. Besides, in [7], the inhibition entry was “inactive”.

For `O=C1Nc2ccccc2/C1=N\CCc1c[nH]c2ccccc12`, the Activity in [1] was 69.1%; in assay [2], 73.5%; in assay [3] it was 42.8%; in assay [4], 30.4%; in [5], 92.8%. Further, the inhibition result in assay [6] was “inactive”. In addition, in [7], the inhibition entry was “Active”. For the same molecule, the inhibition was > 35% in assay [8] and > 50% in assay [9].

For `Cc1ccc(Nc2nnc(-c3ccc4c(c3)OCO4)o2)c(C)c1`, the Activity in [1] stood at 14%; in assay [2], 106%; in [3], 69.8%; in [4] it was 57.9%; in assay [5], 90.6%. The inhibition result in assay [6] was “inactive”. For the same molecule, the inhibition in assay [8] is > 35%; in assay [9] it was < 40%.

With `Cn1c(=O)c2nc(CCCc3nc4ccccc4[nH]3)[nH]c2n(C)c1=O`, the Activity in [1] was 98.5%; in [2], 113%; in assay [3], 98.3%; in [4], 90.9%; in assay [5], 92.7%. Besides, the inhibition entry in [6] and in assay [9] was “inactive” each time. The inhibition in [8] is > 35%.

As for `CC(=O)c1cccc2cc(CC(=O)c3ccccc3)c(=O)oc12`, the Activity in [1] was found to be 105%; in assay [2] it was 81.6%; in [3] it was 94.9%; in assay [4], 59%; in assay [5] it was 79.7%. Besides, in assay [6], the inhibition result was “inactive”. For the same molecule, the inhibition in [8] was > 35%; in assay [9] it was < 40%.

Take `O=C1N=C(Nc2nc3ccccc3[nH]2)OC1c1ccccc1` (stereo not given): the Activity in assay [1] is 94.4%; in assay [2] it was 121%; in assay [3] it was 102%; in assay [4] it was 83.6%; in assay [5], 99.9%. Further, the inhibition result in assay [6] and in [9] was “inactive” throughout. In addition, in [8], the inhibition was > 35%.

`CC(=O)NC(CC(=O)Nc1cccc2c1Cc1ccccc1-2)C(=O)O` (stereo not given): the Activity in [1] was determined as 107%; in assay [2], 94.2%; in assay [3] it was 102%; in [4], 96.3%; in assay [5], 81%. For the same molecule, the inhibition result in assay [6] and in assay [9] was “inactive” throughout. For the same molecule, the inhibition in [8] is > 35%.

As for `O=C1C(C(O)c2ccccc2)CCCC1C(O)c1ccccc1` (stereo not given), the Activity in [1] came to 103%; in assay [2], 152%; in assay [3], 77.9%; in [4] it was 81.1%; in assay [5], 132%. Also, the inhibition entry in assay [6] and in [9] was “inactive” each time. For the same molecule, the inhibition in assay [8] was > 35%.

In the case of `N=c1c2c(ncn1Cc1ccccc1)CCN(Cc1ccccc1)C2`, the Activity in [1] is 96.2%; in assay [2], 82.3%; in assay [3] it was 80.1%; in assay [4], 93.9%; in assay [5], 91.6%. In addition, the inhibition result in [6] and in assay [9] was “inactive” in each case. Also, the inhibition in assay [8] was > 35%.

As to `O=C1C/C(=C/c2cccc(OCc3ccccc3)c2)C(=O)N1`, the Activity in assay [1] worked out at 94.4%; in assay [2] it was 112%; in [3], 67.1%; in [4], 83.1%; in assay [5] it was 128%. Further, the inhibition result in [6] and in assay [9] was “inactive” each time. In [8], the inhibition was > 35%.

Turning to `Oc1nc(Cc2ccc3ccccc3n2)cc(-c2ccccc2)n1`, the Activity stood at 68.1% in assay [1]; 53.9% in [2]; 111% in assay [3]; 55.8% in [4]; 91.6% in assay [5]. Moreover, the inhibition was 37% in assay [6] and > 35% in assay [8]. Besides, the inhibition result in assay [7] and in assay [9] was “inactive” each time.

As to `O=C(/C=C/c1ccccc1)CCc1c(O)c2ccccc2oc1=O`, the Activity in [1] amounted to 67.6%; in assay [2] it was 47.6%; in [3], 60.1%; in assay [4], 52.6%; in assay [5], 108%. The inhibition result in assay [6] is “inactive”. The inhibition in [8] was > 35%; in assay [9] it was < 40%.
